Among the data in patent US20130040933A1, “AZAINDOLES AS JANUS KINASE INHIBITORS” (priority 2010, published 2013) are IC50 values, retold here.

T1 sequence (P52333 822-1111 limits assumed): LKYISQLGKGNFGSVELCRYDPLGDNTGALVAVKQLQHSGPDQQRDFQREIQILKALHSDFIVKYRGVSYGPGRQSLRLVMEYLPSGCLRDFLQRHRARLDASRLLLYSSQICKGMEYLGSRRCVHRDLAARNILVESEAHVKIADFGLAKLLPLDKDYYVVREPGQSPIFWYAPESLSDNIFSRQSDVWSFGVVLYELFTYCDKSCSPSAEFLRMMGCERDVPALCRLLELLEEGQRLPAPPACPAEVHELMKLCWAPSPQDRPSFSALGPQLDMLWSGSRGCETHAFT

One assay has as its target T1, rhJAK3 (Homo sapiens, UniProt P52333).
T1 construct: recombinant purified GST-tagged catalytic domain for each enzyme; purchased Invitrogen PV3855
Description: JAK Biochemical HTRF Assay (JAK3). Conditions: recombinant purified GST-tagged catalytic domain, HTRF format, [ATP] 1.7 μM; read-out: JAK3 IC50. On the procedure: JAK Biochemical HTRF Assay Protocol
The ability of compounds to inhibit the activity of JAK1, JAK2, JAK3, and TYK2 was measured using a recombinant purified GST-tagged catalytic domain for each enzyme (Invitrogen JAK1 #PV4774, JAK2 #PV4210, JAK3 #PV3855, TYK2 #PV4790) in an HTRF format biochemical assay. The reactions employed a common peptide substrate, LCB-EQEDEPEGDYFEWLW-NH2. The basic assay protocol is as follows: First, […] of diluted compounds in DMSO were dispensed into the wells of a dry 384-well Black plate (Greiner #781076) using a Labcyte Echo 555 acoustic dispenser. Subsequent reagent additions employed a Thermo Multidrop Combi nL. Next, 10 μL of 2× enzyme and 2× substrate in 1× assay buffer (Invitrogen kinase buffer #PV3189, 2 mM DTT, 0.05% BSA) were added to the wells and preincubated for 30 min at room temperature to allow compound binding to equilibrate. After equilibration, 10 μl, of 2×ATP in 1× assay buffer was added to initiate the kinase reaction and the plates were incubated at room temperature for 120 min. At the end of the incubation, 20 μL of 2× stop buffer containing streptavidin-Dylight (Thermo #21845) and Eu-tagged pY20 antibody (Perkin Elmer #AD0067) was added to quench the reaction. Plates were further incubated 60 min at room temperature with shaking and then read on a Perkin Elmer Envision (λex=337 nm, λem=665 and 615 nm, TRF delay time=20 μs). HTRF signal=10,000*665 nm reading/615 nm reading. After normalization to untreated controls, the percent inhibition of the HTRF signal at each compound concentration was calculated. The plot of percent inhibition vs. the log of compound concentration was fit with a 4-parameter dose response equation to calculate IC50 values.
(In TR-FRET formats the signal depends on donor and acceptor labels being close together.)
What is called IC50 is the concentration at which inhibition is half-maximal. On to `COC(=O)c1cnc2[nH]cc(-c3cncc(N[C@@H](C(=O)NCC(F)(F)F)C(C)C)n3)c2c1` [Example 16-3, Methyl 3-[6-({(2R)-3-methyl-1-oxo-1-[(2,2,2-trifluoroethyl)amino]butan-2-yl}-amino)pyrazin-2-yl]-1H-pyrrolo[2,3-b]-pyridine-5-carboxylate], for which the 50% inhibitory concentration (IC50) was in the range of 0.001 to 0.01 µM.

Turning to `C[C@@H](Nc1cncc(-c2c[nH]c3ncc(/C=C/CN(C)C)cc23)n1)C(=O)NCC(F)(F)F` [Example 15-4, N^2-(6-{5-[(1E)-3-(dimethylamino)prop-1-en-1-yl]-1H-pyrrolo[2,3-b]pyridin-3-yl}pyrazin-2-yl)-N-(2,2,2-trifluoro-ethyl)-D-alaninamide], the IC50 lay within 0.001 to 0.01 µM.

Take `C[C@@H](Nc1cncc(-c2c[nH]c3ncc(-c4ccccc4OC(F)(F)F)cc23)n1)C(=O)NCC(F)(F)F` [Example 15-14, N-(2,2,2-trifluoroethyl)-N^2-(6-{5-[2-(trifluoromethoxy)phenyl]-1H-pyrrolo[2,3-b]pyridin-3-yl}pyrazin-2-yl)-D-alaninamide]: the concentration for half-maximal inhibition (IC50) fell in the range of 0.01 to 0.1 µM.

For the molecule `C[C@@H](Nc1cncc(-c2c[nH]c3ncc(-c4cccnc4F)cc23)n1)C(=O)NCC(F)(F)F` [Example 15-20, N^2-{6-[5-(2-fluoropyridin-3-yl)-1H-pyrrolo[2,3-b]pyridin-3-yl)pyrazin-2-yl}-N-(2,2,2-trifluoroethyl)-D-alaninamide], the IC50 was at most 0.001 µM.

Regarding `CC(C)(Nc1cncc(-c2c[nH]c3ncc(C4CC4)cc23)n1)C(=O)NCC(F)(F)F` [Example 15-21, N2-[6-(5-cyclopropyl-1H-pyrrolo[2,3-b]pyridin-3-yl)pyrazin-2-yl]-2-methyl-N-(2,2,2-trifluoroethyl)alaninamide], the IC50 is at most 0.001 µM.

Consider `CC(C)(Nc1cncc(-c2c[nH]c3ncc(F)cc23)n1)C(=O)NCC(F)(F)F` [Example 16-5, N^2-[6-(5-fluoro-1H-pyrrolo[2,3-b]pyridin-3-yl)pyrazin-2-yl]-2-methyl-N-(2,2,2-trifluoroethyl)alaninamide], for which the IC50 was at most 0.001 µM.

Turning to `C[C@@H](Nc1cncc(-c2c[nH]c3ncc(-c4ccc(C(O)C(F)(F)F)cc4)cc23)n1)C(=O)NCC(F)(F)F` (stereo partly drawn) [Example 15-3, N-(2,2,2-trifluoroethyl)-N^2-(6-{5-[4-(2,2,2-trifluoro-1-hydroxyethyl)phenyl]-1H-pyrrolo[2,3-b]pyridin-3-yl}pyrazin-2-yl)-D-alaninamide], the IC50 is at most 0.001 µM.

The same assay, now with this note: recombinant purified GST-tagged catalytic domain, HTRF format, [ATP] 1.7 μM; read-out: rhJAK3 IC50.
Regarding `O=C(NCC(F)(F)F)C1CN(c2cncc(-c3c[nH]c4ncc(Cl)cc34)n2)C1` [Example 1-15, 1-[6-(5-chloro-1H-pyrrolo[2,3-b]pyridin-3-yl)pyrazin-2-yl]-N-(2,2,2-trifluoroethyl)azetidine-3-carboxamide], the IC50 lay within 0.01 to 0.1 µM.

Consider `C[C@H](Nc1cncc(-c2c[nH]c3ncc(Cl)cc23)n1)C(=O)NCCC(F)(F)F` [Example 2-22, N^2-[6-(5-chloro-1H-pyrrolo[2,3-b]-pyridin-3-yl)pyrazin-2-yl]-N-(3,3,3-trifluoropropyl)-L-alaninamide], for which the IC50 was in the range of 0.01 to 0.1 µM.

With `C[C@@]1(C(=O)NCC(F)(F)F)CCN1c1cncc(-c2c[nH]c3ncc(Cl)cc23)n1` [Example 1-10, (2S)-1-[6-(5-chloro-1H-pyrrolo[2,3-b]pyridin-3-yl)pyrazin-2-yl]-2-methyl-N-(2,2,2-trifluoroethyl)azetidine-2-carboxamide], the half-inhibitory concentration (IC50) was 0.001 to 0.01 µM.

For the molecule `C[C@@H](Nc1cncc(-c2c[nH]c3ncc(Cl)cc23)n1)C(=O)NCC(=O)N(C)C` [Example 2-11, N-[6-(5-chloro-1H-pyrrolo[2,3-b]-pyridin-3-yl)pyrazin-2-yl]-D-alanyl-N,N-dimethylglycinamide], the half-maximal inhibitory concentration (IC50) was in the range of 0.1 to 1 µM.

As for `C/C(=C\c1cncc(-c2c[nH]c3ncc(Cl)cc23)n1)C(=O)NCC(F)(F)F` [Example 9, (2E)-3-[6-(5-chloro-1H-pyrrolo[2,3-b]pyridin-3-yl)pyrazin-2-yl]-2-methyl-N-(2,2,2-trifluoro-ethyl)prop-2-enamide], the concentration for half-maximal inhibition (IC50) fell in the range of 0.01 to 0.1 µM.

As for `CC(C)(C)C(=O)N1CCN(c2cncc(-c3c[nH]c4ncc(Cl)cc34)n2)[C@@H](C(=O)NCC(F)(F)F)C1` [Example 4-3, (2R)-1-[6-(5-chloro-1H-pyrrolo[2,3-b]-pyridin-3-yl)pyrazin-2-yl]-4-(2,2-dimethylpropanoyl)-N-(2,2,2-trifluoro-ethyl)piperazine-2-carboxamide], the IC50 lay within 0.01 to 0.1 µM.

In the case of `CS(=O)(=O)N1CCN(c2cncc(-c3c[nH]c4ncc(Cl)cc34)n2)[C@@H](C(=O)NCC(F)(F)F)C1` [Example 4, (2R)-1-[6-(5-Chloro-1H-pyrrolo[2,3-b]pyridin-3-yl)pyrazin-2-yl]-4-methylsulfonyl-N-(2,2,2-trifluoroethyl)piperazine-2-carboxamide], the concentration for half-maximal inhibition (IC50) is 0.001 to 0.01 µM.

`O=C(NCC(F)(F)F)c1ccc(-c2cncc(-c3c[nH]c4ncc(Cl)cc34)n2)cc1` [Example 10, 4-[6-(5-Chloro-1H-pyrrolo[2,3-b]pyridin-3-yl)pyrazin-2-yl]-N-(2,2,2-trifluoroethyl)benzamide]: the IC50 lay in the range of 0.1 to 1 µM.

With `NC(=O)C1(Oc2cncc(-c3c[nH]c4ncc(Cl)cc34)n2)CC1` [Example 6-1, 1-{[6-(5-chloro-1H-pyrrolo[2,3-b]pyridin-3-yl)pyrazin-2-yl]oxy}cyclopropane-carboxamide], the IC50 was in the range of 0.001 to 0.01 µM.

`Cc1cnc2[nH]cc(-c3cncc(N[C@H](C)C(=O)NCC(F)(F)F)n3)c2c1` [Example 15, N2-[6-(5-methyl-1H-pyrrolo[2,3-b]pyridin-3-yl)pyrazin-2-yl]-N-(2,2,2-trifluoroethyl)-D-alaninamide]: the IC50 is 0.001 to 0.01 µM.

As to `C[C@@H](Nc1cncc(-c2c[nH]c3ncc(Cl)cc23)n1)C(=O)NCc1ccc(N)cc1` [Example 2-14, N-(4-aminobenzyl)-N^2-[6-(5-chloro-1H-pyrrolo[2,3-b]pyridin-3-yl)pyrazin-2-yl]-D-alaninamide], the half-inhibitory concentration (IC50) was 0.1 to 1 µM.

For `O=C(Cn1ccc2ncc(-c3c[nH]c4ncc(Cl)cc34)nc21)NCC(F)(F)F` [Example 5, 2-[3-(5-Chloro-1H-pyrrolo[2,3-b]pyridin-3-yl)-5H-pyrrolo[2,3-b]pyrazin-5-yl]-N-(2,2,2-trifluoroethyl)acetamide], the IC50 was 0.01 to 0.1 µM.

For `CC(=O)N1CCN(c2cncc(-c3c[nH]c4ncc(Cl)cc34)n2)[C@@H](C(=O)NCC(F)(F)F)C1` [Example 4-2, (2R)-4-acetyl-1-[6-(5-chloro-1H-pyrrolo-[2,3-b]pyridin-3-yl)pyrazin-2-yl]-N-(2,2,2-trifluoroethyl)piperazine-2-carboxamide], the 50% inhibitory concentration (IC50) lay within 0.001 to 0.01 µM.

In the case of `CC(Cc1cncc(-c2c[nH]c3ncc(Cl)cc23)n1)C(=O)NCC(F)(F)F` (stereo not drawn) [Example 11, 3-[6-(5-chloro-1H-pyrrolo[2,3-b]pyridin-3-yl)pyrazin-2-yl]-2-methyl-N-(2,2,2-trifluoroethyl)-propanamide], the half-maximal inhibitory concentration (IC50) lay in the range of 0.01 to 0.1 µM.

In the case of `CC(C)(Nc1cncc(-c2c[nH]c3ncc(Cl)cc23)n1)C(=O)NCC(F)(F)F` [Example 1-14, N^2-[6-(5-chloro-1H-pyrrolo[2,3-b]pyridin-3-yl)pyrazin-2-yl]-2-methyl-N-(2,2,2-trifluoroethyl)alaninamide], the IC50 was at most 0.001 µM.

In the case of `O=C(NCC(F)(F)F)C1(Oc2cncc(-c3c[nH]c4ncc(Cl)cc34)n2)CC1` [Example 6, 1-{[6-(5-Chloro-1H-pyrrolo[2,3-b]pyridin-3-yl)pyrazin-2-yl]oxy}-N-(2,2,2-trifluoroethyl)-cyclopropanecarboxamide], the IC50 was 0.001 to 0.01 µM.

Consider `N#CCNC(=O)Cc1cncc(-c2c[nH]c3ncc(Cl)cc23)n1` [Example 8-4, 2-[6-(5-chloro-1H-pyrrolo[2,3-b]-pyridin-3-yl)pyrazin-2-yl]-N-(cyanomethyl)acetamide], for which the 50% inhibitory concentration (IC50) lay within 0.01 to 0.1 µM.

On to `CC(C)(C)OC(=O)N1CCN(c2cncc(-c3c[nH]c4ncc(Cl)cc34)n2)[C@@H](C(=O)NCC(F)(F)F)C1` [Example 1-13, tert-butyl (3R)-4-[6-(5-chloro-1H-pyrrolo[2,3-b]pyridin-3-yl)pyrazin-2-yl]-3-[(2,2,2-trifluoroethyl)carbamoyl]-piperazine-1-carboxylate], for which the IC50 is 0.001 to 0.01 µM.

Take `O=C(NCC(F)(F)F)C1=C(c2cncc(-c3c[nH]c4ncc(Cl)cc34)n2)CCC1` [Example 10-1, 2-[6-(5-chloro-1H-pyrrolo[2,3-b]pyridin-3-yl)pyrazin-2-yl]-N-(2,2,2-trifluoroethyl)cyclopent-1-ene-1-carboxamide]: the half-maximal inhibitory concentration (IC50) was 0.001 to 0.01 µM.

In the case of `C[C@H](Nc1cncc(-c2c[nH]c3ncc(Cl)cc23)n1)C(=O)NCC(C)(C)C` [Example 2-24, N^2-[6-(5-chloro-1H-pyrrolo[2,3-b]-pyridin-3-yl)pyrazin-2-yl]-N-(2,2-dimethylpropyl)-L-alaninamide], the IC50 was in the range of 0.1 to 1 µM.
